Assay results from US20080279769A1, “Enzyme Inhibitor Imaging Agents” (priority 2004, published 2008).

Assays:
[1] = test system: ApoE ligation model; test: Biodistribution in ApoE ligated animal model of MMP expression; assay type: in vivo, mice; conditions: for Carotid: Blood / Carotid: Heart: ratio
Description: The ApoE ligation model was also studied. ApoE mice are transgenic knock-out mice, which lack the ApoE gene, and are therefore unable to regulate their plasma cholesterol levels. As a consequence ApoE mice develop atherosclerotic lesions, a process which is accelerated with feeding of high fat diet. Further acceleration of lesion development can be achieved by ligating the carotid artery, resulting in advanced lesion formation within 4 weeks of surgery and high fat diet feeding. […] 105, 2686-2691 (2002)].

[2] = test system: Lewis Lung [LLC] Carcinoma Tumour model; test: Biodistribution in animal tumour model of MMP expression; assay type: in vivo; conditions: for % ID/g Tumour: 15 days tumour growth
Description: The in vivo Lewis Lung [LLC] Carcinoma Tumour model has been used for screening of MMP is due to reproducible up-regulation of several MMPs in the tumour. As such, this model provides a good assessment of the efficacy of the MMP is for in vivo targeting of lesions that express MMPs. Literature reports have shown that LLC cells express pro and active MMP-2 and pro NMP-9 and LLC tumours MMP-2 and MMP-9 (not classified as pro or active) [Bae et al Drugs Exp Clin Res. 29(1):15-23 (2003)].

[3] = target: MMP-2 (Homo sapiens, UniProt P08253); test: In vitro metalloproteinase inhibition assay (Biomol MMP-2 colorimetric assay kit); assay type: biochemical
Description: (§1) Compounds were screened using the following commercially available Biomol assay kits:
(§2) Inhibitors were provided in powdered form, and stored at 4° C. For each inhibitor a 1 mM stock solution in DMSO was prepared, dispensed into 20 μl aliquots and these aliquots stored at −20° C. […] Dilutions were made in the kit assay buffer. A five-fold dilution of the inhibitor stocks is made on addition to the assay wells, therefore final concentration range was from 10 μM to 1 pM.

[4] = target: T1, MMP-1 (Homo sapiens, UniProt P03956); test: In vitro metalloproteinase inhibition assay (colorimetric, thiopeptolide substrate), MMP-1; assay type: biochemical
T1 sequence (P03956 100-469): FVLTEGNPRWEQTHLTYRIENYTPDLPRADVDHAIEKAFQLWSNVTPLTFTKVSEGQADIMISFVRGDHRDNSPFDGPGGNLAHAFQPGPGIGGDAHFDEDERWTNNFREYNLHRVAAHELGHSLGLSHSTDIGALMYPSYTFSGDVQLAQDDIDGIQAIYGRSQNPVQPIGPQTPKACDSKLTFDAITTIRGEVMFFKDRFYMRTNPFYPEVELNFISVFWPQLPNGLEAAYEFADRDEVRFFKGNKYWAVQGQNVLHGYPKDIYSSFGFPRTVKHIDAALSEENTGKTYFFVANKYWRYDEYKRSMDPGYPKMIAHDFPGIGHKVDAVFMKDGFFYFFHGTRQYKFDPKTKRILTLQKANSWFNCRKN
Description: [The source words this procedure for another target and reports this target under the same test.] as §1
(§3) MMP-2 colorimetric assay kit-Catalogue number AK-408, MMP-9 colorimetric assay kit-Catalogue number AK-410, MMP-12 colorimetric assay kit-Catalogue number AK-402, Which are available from Affiniti Research Products Ltd. (Palatine House, Matford Court, Exeter, EX2 8NL, UK).
(§4) Inhibitors were provided in powdered form, and stored at 4° C. For each inhibitor a 1 mM stock solution in DMSO was prepared, dispensed into 20 μl aliquots and these aliquots stored at −20° C. The stock solution was diluted to give 8 inhibitor concentrations (recommended: 50 μM, 5 μM, […], 5 nM, […]). Dilutions were made in the kit assay buffer. A five-fold dilution of the inhibitor stocks is made on addition to the assay wells, therefore final concentration range was from 10 μM to 1 pM.
(§5) Details are provided with the commercial kit, but can be summarised as follows: • Prepare test compound dilutions as above, • Add assay buffer to plate, • Add test compounds to plate • Prepare standard kit inhibitor NNGH (see kit for dilution factor) • Add NNGH to control inhibitor wells • Prepare MMP enzyme (see kit for dilution factor) • Add MMP to plate • Incubate plate at 37° C. for ˜15 min • Prepare thiopeptolide substrate (see kit for dilution factor) • Add substrate to plate • Count every 2 min for 1 hr, 37° C., 414 nm on a Labsystems iEMS plate reader.

[5] = target: MMP-12 (Homo sapiens, UniProt P39900); test: In vitro metalloproteinase inhibition assay (Biomol MMP-12 colorimetric assay kit); assay type: biochemical
Description: as §1, §3, §4, §5

[6] = target: MMP-9 (Homo sapiens, UniProt P14780); test: In vitro metalloproteinase inhibition assay (Biomol MMP-9 colorimetric assay kit); assay type: biochemical
Description: as §1, §2

[7] = target: MMP-8 (Homo sapiens, UniProt P22894); test: In vitro metalloproteinase inhibition assay (colorimetric, thiopeptolide substrate), MMP-8; assay type: biochemical
Description: [The source words this procedure for another target and reports this target under the same test.] as §1, §3
Inhibitors were provided in powdered form, and stored at 4° C. For each inhibitor a 1 mM stock solution in DMSO was prepared, dispensed into 20 μl aliquots and these aliquots stored at −20° C. The stock solution was diluted to give 8 inhibitor concentrations (recommended: 50 μM, 5 μM, […], 5 nM, […]). Dilutions were made in the kit assay buffer. […]
as §5

[8] = between 5 and 120 minutes post injection

MMP-9, sequence (P14780 107-444 limits assumed): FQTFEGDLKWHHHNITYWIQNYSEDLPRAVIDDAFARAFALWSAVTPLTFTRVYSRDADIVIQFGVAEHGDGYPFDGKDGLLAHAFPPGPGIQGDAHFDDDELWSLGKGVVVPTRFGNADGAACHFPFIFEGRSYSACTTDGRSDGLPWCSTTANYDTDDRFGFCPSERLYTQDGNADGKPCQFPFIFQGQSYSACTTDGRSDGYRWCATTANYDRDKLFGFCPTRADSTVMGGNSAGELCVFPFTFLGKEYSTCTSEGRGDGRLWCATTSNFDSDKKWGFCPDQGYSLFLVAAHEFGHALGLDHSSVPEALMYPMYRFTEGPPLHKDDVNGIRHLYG
MMP-12, sequence (P39900 106-263 limits assumed): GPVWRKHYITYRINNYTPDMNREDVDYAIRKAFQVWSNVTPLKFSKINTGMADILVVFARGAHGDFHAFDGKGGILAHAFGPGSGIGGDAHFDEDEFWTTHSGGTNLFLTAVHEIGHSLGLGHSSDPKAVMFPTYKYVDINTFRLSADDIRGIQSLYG
MMP-2, sequence (P08253 110-446 limits assumed): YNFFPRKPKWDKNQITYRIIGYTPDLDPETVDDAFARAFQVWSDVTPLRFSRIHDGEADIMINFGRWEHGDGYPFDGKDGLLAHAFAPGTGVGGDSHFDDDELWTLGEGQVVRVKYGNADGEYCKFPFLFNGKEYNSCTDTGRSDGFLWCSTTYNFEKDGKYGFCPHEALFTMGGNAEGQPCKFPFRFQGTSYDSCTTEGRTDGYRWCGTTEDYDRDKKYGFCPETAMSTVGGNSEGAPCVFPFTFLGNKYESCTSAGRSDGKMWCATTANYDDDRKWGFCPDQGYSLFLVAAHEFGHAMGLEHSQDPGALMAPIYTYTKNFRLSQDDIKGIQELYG
MMP-8, sequence (P22894 101-467): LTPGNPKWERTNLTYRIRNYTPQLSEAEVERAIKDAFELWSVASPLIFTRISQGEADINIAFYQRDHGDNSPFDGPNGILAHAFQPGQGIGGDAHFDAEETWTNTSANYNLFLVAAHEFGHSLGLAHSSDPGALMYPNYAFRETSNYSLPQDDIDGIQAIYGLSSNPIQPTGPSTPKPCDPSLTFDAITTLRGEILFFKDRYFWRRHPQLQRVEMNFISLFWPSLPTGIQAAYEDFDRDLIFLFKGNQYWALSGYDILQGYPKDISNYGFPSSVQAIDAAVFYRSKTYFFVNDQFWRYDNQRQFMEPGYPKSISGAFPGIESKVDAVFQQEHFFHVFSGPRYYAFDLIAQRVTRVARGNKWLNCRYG

## CNC(=O)[C@H](Cc1ccc([123I])cc1)NC(=O)C[C@@H](CC(C)C)C(=O)NO [Compound 2A]
[1]; 5 min post injection
  % ID/g Blood: 6.5 % ID/g
  % ID/g Carotid: 3.3 % ID/g
  % ID/g Heart: 5.5 % ID/g
  Carotid: Blood: 0.5
  Carotid: Heart: 0.8
[1]; 120 min post injection
  % ID/g Blood: 1.5 % ID/g
  % ID/g Carotid: 2.7 % ID/g
  % ID/g Heart: 3.6 % ID/g
  % Retained Carotid: 83%
  Carotid: Blood: 1.8
  Carotid: Heart: 0.8
[1]; 360 min post injection
  % ID/g Blood: 1.6 % ID/g
  % ID/g Carotid: 1.6 % ID/g
  % ID/g Heart: 1.5 % ID/g
  % Retained Carotid: 47%
  Carotid: Blood: 1.0
  Carotid: Heart: 1.0
[1]; [8]
  carotid uptake and retention: exhibited carotid uptake and retention
[1]; mouse, in vivo
  carotid to blood ratios: good
  clearance from normal tissues [e.g. blood and other background tissues]: significant
[2]; 5 min post injection
  % ID GI Excretion: 17.81 % ID
  % ID Heart: 0.86 % ID
  % ID Liver: 29.76 % ID
  % ID Lung: 1.38 % ID
  % ID Urinary Excretion: 19.85 % ID
  % ID/g Blood: 5.89 % ID/g
  % ID/g Tumour: 1.39 % ID/g
[2]; 30 min post injection
  % ID GI Excretion: 28.46 % ID
  % ID Heart: 0.57 % ID
  % ID Liver: 24.43 % ID
  % ID Lung: 0.73 % ID
  % ID Urinary Excretion: 22.52 % ID
  % ID/g Blood: 2.19 % ID/g
  % Retained Tumour: 78%
  % ID/g Tumour: 1.08 % ID/g
[2]; 60 min post injection
  % ID GI Excretion: 29.5 % ID
  % ID Heart: 0.56 % ID
  % ID Liver: 20.04 % ID
  % ID Lung: 0.59 % ID
  % ID Urinary Excretion: 27.7 % ID
  % ID/g Blood: 1.49 % ID/g
  % Retained Tumour: 87%
  % ID/g Tumour: 1.21 % ID/g
[2]; 120 min post injection
  % ID GI Excretion: 34.42 % ID
  % ID Heart: 0.49 % ID
  % ID Liver: 13.45 % ID
  % ID Lung: 0.45 % ID
  % ID Urinary Excretion: 31.03 % ID
  % ID/g Blood: 1.38 % ID/g
  % Retained Tumour: 97%
  % ID/g Tumour: 1.35 % ID/g
[2]; between 5 and 120 minutes p.i.
  clearance from normal tissues [e.g. blood and other background tissues]: occurred between 5 and 120 minutes p.i.
[2]; [8]
  tumour uptake and retention: exhibited tumour uptake and retention

## CNC(=O)[C@H](Cc1ccc(I)cc1)NC(=O)[C@@H](CC(=O)NO)CC(C)C [Compound 3]
[3]
  Ki: 0.2 ± 0.11 nM
[4]
  Ki: 1.77 nM
[5]
  Ki: 0.4 ± 0.04 nM
[6]
  Ki: 0.11 ± 0.08 nM

## CC(C)C[C@H](CC(=O)N[C@@H](Cc1c[nH]c2ccccc12)C(=O)NCc1ccc([123I])cc1)C(=O)NO [Compound 6A]
[1]; 5 min post injection
  % ID/g Blood: 9.9 % ID/g
  % ID/g Carotid: 3.9 % ID/g
  % ID/g Heart: 9.8 % ID/g
  Carotid: Blood: 0.3
  Carotid: Heart: 0.4
[1]; 60 min post injection
  % ID/g Blood: 3.2 % ID/g
  % ID/g Carotid: 1.4 % ID/g
  % ID/g Heart: 2.2 % ID/g
  % Retained Carotid: 36%
  Carotid: Blood: 0.6
  Carotid: Heart: 0.7
[1]; 120 min post injection
  % ID/g Blood: 2.5 % ID/g
  % ID/g Carotid: 1.4 % ID/g
  % ID/g Heart: 1.5 % ID/g
  % Retained Carotid: 37%
  Carotid: Blood: 0.6
  Carotid: Heart: 1.0

## CC(C)C[C@H](CC(=O)NO)C(=O)N[C@@H](Cc1c[nH]c2ccccc12)C(=O)NCc1ccc(I)cc1 [Compound 7]
[4]
  Ki: 1.57 ± 2.37 nM

## CNC(=O)C(CCC(=O)NCCOCCOCCOCCOCCOCCOCCOCCOCCOCCOCCOCCOCCC(=O)NCc1ccc(I)cc1)NC(=O)CC(CC(C)C)C(=O)NO (stereo not shown) [Compound 10]
[3]
  Ki: 8.8 ± 3.1 nM
[4]
  Ki: 23.9 nM
[5]
  Ki: 4.7 nM
[6]
  Ki: 2.85 ± 3.5 nM

## CNC(=O)C(CCC(=O)NCCOCCOCCOCCOCCOCCOCCOCCOCCOCCOCCOCCOCCC(=O)NCc1ccc(I)cc1)NC(=O)C(CC(=O)NO)CC(C)C (stereo not shown) [Compound 12]
[3]
  Ki: 21 ± 2.2 nM
[4]
  Ki: 28.5 nM
[5]
  Ki: 8.3 nM
[6]
  Ki: 7.15 ± 3.32 nM

## CC(C)CC(CC(=O)NC(Cc1c[nH]c2ccccc12)C(=O)NCCOCCOCCOCCOCCOCCOCCOCCOCCOCCOCCOCCOCCC(=O)NCc1ccc(I)cc1)C(=O)NO (stereo not shown) [Compound 14]
[7]
  Ki: 0.082 nM
[3]
  Ki: 0.21 ± 0.05 nM
[4]
  Ki: 2.68 ± 0.19 nM
[5]
  Ki: 0.51 nM
[6]
  Ki: 0.04 ± 0.03 nM

## CC(C)CC(CC(=O)NO)C(=O)NC(Cc1c[nH]c2ccccc12)C(=O)NCCOCCOCCOCCOCCOCCOCCOCCOCCOCCOCCOCCOCCC(=O)NCc1ccc(I)cc1 (stereo not shown) [Compound 16]
[3]
  Ki: 0.61 ± 0.16 nM
[4]
  Ki: 18 ± 1.69 nM
[5]
  Ki: 0.4 ± 0.09 nM
[6]
  Ki: 0.5 ± 0.42 nM

## CC(C)C[C@H](CC(=O)N[C@@H](C)C(=O)NCc1ccc([123I])cc1)C(=O)NO [Compound 18A]
[1]; 5 min post injection
  % ID/g Blood: 7.3 % ID/g
  % ID/g Carotid: 2.9 % ID/g
  % ID/g Heart: 10.1 % ID/g
  Carotid: Blood: 0.5
  Carotid: Heart: 0.3
[1]; 120 min post injection
  % ID/g Blood: 2.4 % ID/g
  % ID/g Carotid: 1.0 % ID/g
  % ID/g Heart: 2.6 % ID/g
  % Retained Carotid: 34%
  Carotid: Blood: 0.4
  Carotid: Heart: 0.4
[1]; 360 min post injection
  % ID/g Blood: 1.2 % ID/g
  % ID/g Carotid: 0.8 % ID/g
  % ID/g Heart: 1.0 % ID/g
  % Retained Carotid: 26%
  Carotid: Blood: 0.7
  Carotid: Heart: 0.8
